Key:
SMN2 Protein = test: SMN Protein Assay (MSD); assay type: cell-based, human; details: SMA patient fibroblasts, 48 hours, 0.6 nM to 2.5 µM
Description: Spinal muscular atrophy (SMA) patient fibroblasts were plated in 96-well plates at 7,000 cells/well. Compounds were added in concentrations ranging from 0.6 nM to 2.5 µM, incubated for 48 hours and the cells were lysed with 100 µL of lysis buffer. 20 µL of lysate was used for SMN protein measurement by Mesoscale Discovery (MSD) assay developed by PharmOptima (Michigan). A standard curve prepared with SMN protein ranging from 1 µg/ml to 19.5pg/ml was used in each MSD plate to calculate the absolute SMN protein amount in each sample.

[1] = tested on: SMN2 Splicing D7 (SMN Δ7 transcript); test: SMN Quantitative Splicing Assay (qPCR); assay type: cell-based, human; details: 24 h, SMA patient fibroblasts (GM03813), 2.5 µM to 0.6 nM
Description: Spinal muscular atrophy (SMA) patient fibroblasts (GM03813, Coriell) were plated in 96-well plates at 50,000 cells/well. […] Treated cells were lysed and cDNA synthesized using the Fast Advanced Cells-to-Ct kit (Thermofisher A35378) according to the manufacturer’s instructions. 2 µL of each cDNA were used in qPCR reactions. […] Reactions were run in a Quant Studio 6 qPCR instrument with default settings.

## CN(c1cnc(-c2cc3c(F)cn(C)c(=O)c3cc2O)nn1)[C@@H]1CC2CC[C@](C)(N2)[C@@H]1F [Compound 188]
SMN2 Protein
  EC50: 0.01 to 15 nM
[1]; Homo sapiens, Fibroblast
  IC50: 0.01 to 15 nM

## Cc1ncc2cc(O)c(-c3ncc(N(C)[C@@H]4CC5CCC(N5)[C@@H]4F)nn3)cc2n1 (single isomer, unassigned) [Compound 39]
SMN2 Protein
  EC50: 51 to 100 nM
[1]; Homo sapiens, Fibroblast
  IC50: 101 to 500 nM

## CCc1cc(=O)c2cc(-c3ncc(N(C)[C@H]4C[C@@H]5CCC(N5)[C@H]4F)nn3)c(O)cc2o1 [Compound 118]
SMN2 Protein
  EC50: 0.01 to 15 nM
[1]; Homo sapiens, Fibroblast
  IC50: 0.01 to 15 nM

## CN(c1cnc(-c2cc3ccn(C)c(=O)c3cc2O)nn1)C1CC2COCC(C1)N2 (stereo not drawn) [Compound 147]
SMN2 Protein
  EC50: 0.01 to 15 nM
[1]; Homo sapiens, Fibroblast
  IC50: 0.01 to 15 nM

## Cc1cc2cc(-c3ncc(N(C)[C@@H]4CC5CCCC(N5)[C@@H]4F)nn3)c(O)cc2cn1 (stereo partly drawn) [Compound 47]
SMN2 Protein
  EC50: 16 to 50 nM
[1]; Homo sapiens, Fibroblast
  IC50: 51 to 100 nM

## [2H]C([2H])([2H])N(c1cnc(-c2cc3c(F)cn(CC)c(=O)c3cc2O)nn1)[C@@H]1C[C@H]2CC[C@H](N2)[C@@H]1F [Compound 202]
SMN2 Protein
  EC50: 0.01 to 15 nM
[1]; Homo sapiens, Fibroblast
  IC50: 51 to 100 nM

## Cc1coc2cc(-c3ncc(N(C)[C@H]4CC5CCCC(N5)[C@H]4F)nn3)c(O)cc2c1=O (stereo partly drawn) [Compound 102]
SMN2 Protein
  EC50: 0.01 to 15 nM
[1]; Homo sapiens, Fibroblast
  IC50: 0.01 to 15 nM

## CN(c1cnc(-c2cc3occc(=O)c3cc2O)nn1)[C@@H]1C[C@@]2(C)CC[C@](C)(N2)[C@@H]1F [Compound 59]
SMN2 Protein
  EC50: 16 to 50 nM
[1]; Homo sapiens, Fibroblast
  IC50: 16 to 50 nM

## CN(c1cnc(-c2cc3occc(=O)c3cc2O)nn1)C1CC2CCC(N2)C1F (stereo not drawn) [Compound 17]
SMN2 Protein
  EC50: 16 to 50 nM
[1]; Homo sapiens, Fibroblast
  IC50: 16 to 50 nM

## CCn1ccc2cc(O)c(-c3ncc(N(C)[C@@H]4C[C@H]5CCC(N5)[C@@H]4F)nn3)cc2c1=O [Compound 83]
SMN2 Protein
  EC50: 16 to 50 nM
[1]; Homo sapiens, Fibroblast
  IC50: 101 to 500 nM

## Cc1cnc2cc(O)c(-c3ncc(N(C)[C@H]4CC5CCCC(N5)[C@H]4F)nn3)cc2n1 (stereo partly drawn) [Compound 160]
SMN2 Protein
  EC50: 101 to 500 nM
[1]; Homo sapiens, Fibroblast
  IC50: 101 to 500 nM

## CN(c1cnc(-c2cc3ncn(C)c(=O)c3cc2O)nn1)C1CC2COCC(C1)N2 (stereo not drawn) [Compound 148]
SMN2 Protein
  EC50: 0.01 to 15 nM
[1]; Homo sapiens, Fibroblast
  IC50: 0.01 to 15 nM

## CN(c1cnc(-c2cc3ncn(C)c(=O)c3cc2O)nn1)[C@@H]1C[C@H]2CCCC(N2)[C@@H]1F [Compound 124]
SMN2 Protein
  EC50: 16 to 50 nM
[1]; Homo sapiens, Fibroblast
  IC50: 16 to 50 nM

## Cc1cc(=O)c2cc(O)c(-c3ncc(N(C)C4CC5CCCC(N5)C4F)nn3)cc2o1 (stereo not drawn) [Compound 128]
SMN2 Protein
  EC50: 0.01 to 15 nM
[1]; Homo sapiens, Fibroblast
  IC50: 16 to 50 nM

## CN(c1cnc(-c2cc3ccn(C)c(=O)c3cc2O)nn1)[C@H]1C[C@]2(C)CCC(N2)[C@H]1F [Compound 173]
SMN2 Protein
  EC50: 16 to 50 nM
[1]; Homo sapiens, Fibroblast
  IC50: 16 to 50 nM

## CN(c1cnc(-c2cc3c(F)cn(C)c(=O)c3cc2O)nn1)[C@@H]1C[C@@]2(C)CCC(N2)[C@@H]1F [Compound 37]
SMN2 Protein
  EC50: 0.01 to 15 nM
[1]; Homo sapiens, Fibroblast
  IC50: 0.01 to 15 nM

## CN(c1cnc(-c2cc3oc(C(F)(F)F)cc(=O)c3cc2O)nn1)[C@@H]1CC2CCCC(N2)[C@@H]1F (stereo partly drawn) [Compound 161]
SMN2 Protein
  EC50: 0.01 to 15 nM
[1]; Homo sapiens, Fibroblast
  IC50: 51 to 100 nM

## CN(c1cnc(-c2cc3c(=O)n(C)cnc3cc2O)nn1)C1CC2CCC(N2)[C@@H]1F (stereo partly drawn) [Compound 140]
SMN2 Protein
  EC50: 16 to 50 nM
[1]; Homo sapiens, Fibroblast
  IC50: 101 to 500 nM

## CN(c1cnc(-c2cc3occc(=O)c3cc2O)nn1)[C@H]1C[C@@H]2COCC(N2)[C@H]1F [Compound 68]
SMN2 Protein
  EC50: 501 to 10000 nM
[1]; Homo sapiens, Fibroblast
  IC50: 101 to 500 nM

## CN(c1cnc(-c2cc3cnn(C)c(=O)c3cc2O)nn1)C1CC2CCCC(N2)C1F (stereo not drawn) [Compound 132]
SMN2 Protein
  EC50: 51 to 100 nM
[1]
  IC50: 16 to 50 nM

## CCn1cnc2cc(-c3ncc(N(C)C4CC5CCCC(N5)C4F)nn3)c(O)cc2c1=O (stereo not drawn) [Compound 126]
SMN2 Protein
  EC50: 51 to 100 nM
[1]; Homo sapiens, Fibroblast
  IC50: 101 to 500 nM

## Cc1cc(=O)c2cc(O)c(-c3ncc(N(C)[C@@H]4C[C@H]5CCC(N5)[C@@H]4F)nn3)cc2o1 (single isomer, unassigned) [Compound 6A]
SMN2 Protein
  EC50: 0.01 to 15 nM
[1]; Homo sapiens, Fibroblast
  IC50: 16 to 50 nM

## CN(c1cnc(-c2cc3ncn(C)c(=O)c3cc2O)nn1)C1C[C@@]2(C)CCC(N2)[C@@H]1F (stereo partly drawn) [Compound 35]
SMN2 Protein
  EC50: 0.01 to 15 nM
[1]; Homo sapiens, Fibroblast
  IC50: 0.01 to 15 nM

## CN(c1cnc(-c2cc3cnn(C)c(=O)c3cc2O)nn1)[C@@H]1CC2CCC(N2)[C@@H]1F (single isomer, unassigned) [Compound 2A]
SMN2 Protein
  EC50: 0.01 to 15 nM
[1]; Homo sapiens, Fibroblast
  IC50: 0.01 to 15 nM

## CN(c1cnc(-c2cc3cnn(C)c(=O)c3cc2O)nn1)[C@H]1C[C@@H]2CC[C@@](C)(N2)[C@H]1F [Compound 183]
SMN2 Protein
  EC50: 0.01 to 15 nM
[1]; Homo sapiens, Fibroblast
  IC50: 0.01 to 15 nM

## Cc1cnc2cc(-c3ncc(N(C)[C@H]4C[C@@H]5CCC(N5)[C@H]4F)nn3)c(O)cc2n1 (single isomer, unassigned) [Compound 54]
SMN2 Protein
  EC50: 101 to 500 nM
[1]; Homo sapiens, Fibroblast
  IC50: 16 to 50 nM

## CN(c1cnc(-c2cc3cccnc3cc2O)nn1)C1CC2CCC(N2)[C@H]1F (stereo partly drawn) [Compound 24]
SMN2 Protein
  EC50: 16 to 50 nM
[1]; Homo sapiens, Fibroblast
  IC50: 16 to 50 nM

## Cc1cc2cc(-c3ncc(N(C)[C@H]4CC5CCC(N5)[C@H]4F)nn3)c(O)cc2cn1 (stereo partly drawn) [Compound 44]
SMN2 Protein
  EC50: 0.01 to 15 nM
[1]; Homo sapiens, Fibroblast
  IC50: 0.01 to 15 nM

## CN(c1cnc(-c2cc3cc[nH]c(=O)c3cc2O)nn1)[C@@H]1CC2CC[C@H](N2)[C@@H]1F [Compound 170]
SMN2 Protein
  EC50: 16 to 50 nM
[1]; Homo sapiens, Fibroblast
  IC50: 51 to 100 nM

## CCn1cc(F)c2cc(-c3ncc(N(C)[C@@H]4CC5CC(F)(F)C(C4)N5)nn3)c(O)cc2c1=O (stereo partly drawn) [Compound 211]
SMN2 Protein
  EC50: 501 to 10000 nM
[1]; Homo sapiens, Fibroblast
  IC50: 101 to 500 nM

## [2H]C([2H])([2H])N(c1cnc(-c2cc3ncn(C([2H])([2H])[2H])c(=O)c3cc2O)nn1)[C@@H]1CC2CC[C@H](N2)[C@@H]1F [Compound 176]
SMN2 Protein
  EC50: 0.01 to 15 nM
[1]; Homo sapiens, Fibroblast
  IC50: 16 to 50 nM

## Cc1cc2cc(O)c(-c3ncc(N(C)[C@@H]4CC5CCC(N5)[C@@H]4F)nn3)cc2cn1 (stereo partly drawn) [Compound 45]
SMN2 Protein
  EC50: 16 to 50 nM
[1]; Homo sapiens, Fibroblast
  IC50: 16 to 50 nM

## CN(c1cnc(-c2cc3occc(=O)c3cc2O)nn1)[C@H]1C[C@]2(C)CCC[C@@](C)(N2)[C@H]1F [Compound 64]
SMN2 Protein
  EC50: 0.01 to 15 nM
[1]; Homo sapiens, Fibroblast
  IC50: 0.01 to 15 nM

## CCc1cc(=O)c2cc(-c3ncc(N(C)[C@H]4C[C@@H]5CCCC(N5)[C@H]4F)nn3)c(O)cc2o1 [Compound 116]
SMN2 Protein
  EC50: 16 to 50 nM
[1]; Homo sapiens, Fibroblast
  IC50: 51 to 100 nM

## CN(c1cnc(-c2cc3c(=O)ccoc3cc2O)nn1)[C@@H]1CC2CC[C@H](N2)[C@@H]1F [Compound 75]
SMN2 Protein
  EC50: 16 to 50 nM
[1]; Homo sapiens, Fibroblast
  IC50: 101 to 500 nM

## CN(c1cnc(-c2cc3ncn(C)c(=O)c3cc2O)nn1)C1CC2CC(F)(F)C(C1)N2 (stereo not drawn) [Compound 143]
SMN2 Protein
  EC50: 51 to 100 nM
[1]
  IC50: 101 to 500 nM

## Cc1nc2cc(O)c(-c3ncc(N(C)[C@H]4C[C@]5(C)CC[C@@](C)(N5)[C@H]4F)nn3)cc2nc1C [Compound 87]
SMN2 Protein
  EC50: 0.01 to 15 nM
[1]; Homo sapiens, Fibroblast
  IC50: 0.01 to 15 nM

## [2H]C([2H])([2H])N(c1cnc(-c2cc3c(F)cn(C([2H])([2H])[2H])c(=O)c3cc2O)nn1)[C@H]1C[C@@H]2CC[C@@H](N2)[C@H]1C [Compound 193]
SMN2 Protein
  EC50: 0.01 to 15 nM
[1]; Homo sapiens, Fibroblast
  IC50: 0.01 to 15 nM

## CCn1c(C)nc2cc(-c3ncc(N(C)[C@@H]4CC5CC(F)(F)C(C4)N5)nn3)c(O)cc2c1=O (stereo partly drawn) [Compound 214]
SMN2 Protein
  EC50: 501 to 10000 nM
[1]; Homo sapiens, Fibroblast
  IC50: 501 to 10000 nM

## CN(c1cnc(-c2cc3ncccc3cc2O)nn1)[C@H]1C[C@@H]2CCC(N2)[C@H]1F [Compound 58]
SMN2 Protein
  EC50: 16 to 50 nM
[1]; Homo sapiens, Fibroblast
  IC50: 16 to 50 nM

## CN(c1cnc(-c2cc3c(F)cn(C)c(=O)c3cc2O)nn1)[C@H]1CC2CC(F)(F)C(C1)N2 (stereo partly drawn) [Compound 210]
SMN2 Protein
  EC50: 0.01 to 15 nM
[1]; Homo sapiens, Fibroblast
  IC50: 0.01 to 15 nM

## CN(c1cnc(-c2cc3cnn(C)c(=O)c3cc2O)nn1)[C@H]1C[C@]2(C)COC[C@](C)(C1)N2 [Compound 151]
SMN2 Protein
  EC50: 0.01 to 15 nM
[1]; Homo sapiens, Fibroblast
  IC50: 0.01 to 15 nM

## CN(c1cnc(-c2cc3ccn(C)c(=O)c3cc2O)nn1)[C@@H]1CC2CCC(N2)[C@@H]1F (single isomer, unassigned) [Compound 4A]
SMN2 Protein
  EC50: 16 to 50 nM
[1]; Homo sapiens, Fibroblast
  IC50: 16 to 50 nM

## CN(c1cnc(-c2cc3occc(=O)c3cc2O)nn1)[C@@H]1CC2CCC[C@H](N2)[C@@H]1F [Compound 60]
SMN2 Protein
  EC50: 0.01 to 15 nM
[1]; Homo sapiens, Fibroblast
  IC50: 16 to 50 nM

## CN(c1cnc(-c2cc3ncn(C)c(=O)c3cc2O)nn1)C1C[C@]2(C)CCC(N2)[C@H]1F (stereo partly drawn) [Compound 36]
SMN2 Protein
  EC50: 16 to 50 nM
[1]; Homo sapiens, Fibroblast
  IC50: 16 to 50 nM
